Data on 26 compounds can be found in US12522595B2, “Bicyclic ether O-glycoprotein-2-acetamido-2-deoxy-3-D-glucopyranosidase inhibitors” (BIOGEN MA INC., priority 2019, dated 2026).

For this test, the target named is T1, Recombinant full length human OGA enzyme (Homo sapiens, UniProt O60502).
T1 construct: Recombinant full length human OGA enzyme was purchased from Origene; purchased Origene
T1 sequence (O60502 1-916): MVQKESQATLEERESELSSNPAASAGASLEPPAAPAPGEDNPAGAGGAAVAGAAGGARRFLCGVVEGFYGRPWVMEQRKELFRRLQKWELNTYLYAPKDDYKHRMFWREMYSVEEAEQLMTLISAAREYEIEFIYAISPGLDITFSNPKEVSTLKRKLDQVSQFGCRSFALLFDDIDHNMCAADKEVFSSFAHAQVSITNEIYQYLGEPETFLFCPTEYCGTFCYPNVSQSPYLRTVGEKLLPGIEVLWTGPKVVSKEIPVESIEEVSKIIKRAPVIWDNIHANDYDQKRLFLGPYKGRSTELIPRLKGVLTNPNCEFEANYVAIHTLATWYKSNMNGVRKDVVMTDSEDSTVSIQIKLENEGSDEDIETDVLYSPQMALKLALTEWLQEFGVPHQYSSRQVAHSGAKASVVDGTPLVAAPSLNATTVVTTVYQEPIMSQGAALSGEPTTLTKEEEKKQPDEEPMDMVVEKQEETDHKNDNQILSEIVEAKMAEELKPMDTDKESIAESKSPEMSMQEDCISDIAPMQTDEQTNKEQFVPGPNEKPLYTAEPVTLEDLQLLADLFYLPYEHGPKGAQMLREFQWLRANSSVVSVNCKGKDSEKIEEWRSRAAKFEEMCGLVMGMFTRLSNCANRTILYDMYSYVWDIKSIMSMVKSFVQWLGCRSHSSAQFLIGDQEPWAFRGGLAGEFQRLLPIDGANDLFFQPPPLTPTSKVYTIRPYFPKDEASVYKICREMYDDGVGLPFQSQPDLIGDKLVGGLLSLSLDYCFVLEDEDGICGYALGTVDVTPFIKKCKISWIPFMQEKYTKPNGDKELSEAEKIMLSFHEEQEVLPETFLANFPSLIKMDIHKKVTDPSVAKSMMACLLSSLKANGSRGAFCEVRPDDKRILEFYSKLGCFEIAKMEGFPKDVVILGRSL
The test is described as follows: OGA enzyme inhibition biochemical assay. The conditions noted are these: 1 nM OGA, 100 μM 4-MUGlcNAc (Km), pH 6.4, 90 minutes at room temperature, 10-point dose-response from 20 μM. The gist of the method:
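1 nM OGA with 100 μM 4-MUGlcNAc (Km) in McIlvaine buffer pH 6.4, 0.01% BSA, 90 min at room temperature; quenched with 3M glycine pH 10, fluorescence Ex 355/Em 460 nm. 10-point, 4-fold dilutions from 20 μM; 4-parameter variable-slope fit.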

Turning to `CC(=O)Nc1nc(F)c(CN2C[C@H](Oc3nccc4ncccc34)C[C@@H]2C)s1` [Example 114, N-(5-(((2S,4R)-4-((1,6-naphthyridin-5-yl)oxy)-2-methylpyrrolidin-1-yl)methyl)-4-fluorothiazol-2-yl)acetamide], the IC50 is less than 1 nM.
Next, `CC(=O)Nc1nc(F)c(CN2C[C@H](Oc3nccc4nccnc34)C[C@@H]2C)s1` [Example 115, N-(4-fluoro-5-(((2S,4R)-2-methyl-4-(pyrido[3,4-b]pyrazin-5-yloxy)pyrrolidin-1-yl)methyl)thiazol-2-yl)acetamide]: 3.8 nM; `CC(=O)Nc1nc(F)c(CN2C[C@H](Oc3ncnc4cccnc34)C[C@@H]2C)s1` [Example 116, N-(4-fluoro-5-(((2S,4R)-2-methyl-4-(pyrido[3,2-d]pyrimidin-4-yloxy)pyrrolidin-1-yl)methyl)thiazol-2-yl)acetamide]: 2.6 nM.
As to `CC(=O)Nc1nc(F)c(CN2C[C@H](Oc3ccc4nccnc4n3)C[C@@H]2C)s1` [Example 117, N-(4-fluoro-5-(((2S,4R)-2-methyl-4-(pyrido[2,3-b]pyrazin-6-yloxy)pyrrolidin-1-yl)methyl)thiazol-2-yl)acetamide], the 50% inhibitory concentration (IC50) is less than 1 nM.
Take `CC(=O)Nc1nc(F)c(CN2C[C@H](Oc3ncnc4cnccc34)C[C@@H]2C)s1` [Example 118, N-(4-fluoro-5-(((2S,4R)-2-methyl-4-(pyrido[3,4-d]pyrimidin-4-yloxy)pyrrolidin-1-yl)methyl)thiazol-2-yl)acetamide]: the IC50 was less than 1 nM.
As to `CC(=O)Nc1nc(F)c(CN2C[C@H](Oc3ncnc4ncccc34)C[C@@H]2C)s1` [Example 119, N-(4-fluoro-5-(((2S,4R)-2-methyl-4-(pyrido[2,3-d]pyrimidin-4-yloxy)pyrrolidin-1-yl)methyl)thiazol-2-yl)acetamide], the IC50 amounted to 1.1 nM.
For the compound `CC(=O)Nc1nc(F)c(CN2C[C@H](Oc3ccc4cnccc4n3)C[C@@H]2C)s1` [Example 120, N-(5-(((2S,4R)-4-((1,6-naphthyridin-2-yl)oxy)-2-methylpyrrolidin-1-yl)methyl)-4-fluorothiazol-2-yl)acetamide], the IC50 was less than 1 nM.
For the compound `COc1cnc2c(O[C@@H]3C[C@H](C)N(Cc4sc(NC(C)=O)nc4F)C3)cnn2c1` [Example 121, N-(4-fluoro-5-(((2S,4R)-4-((6-methoxypyrazolo[1,5-a]pyrimidin-3-yl)oxy)-2-methylpyrrolidin-1-yl)methyl)thiazol-2-yl)acetamide], the IC50 was less than 1 nM.
As to `CC(=O)Nc1nc(F)c(CN2C[C@H](Oc3ncnc4c(F)cccc34)C[C@@H]2C)s1` [Example 122, N-(4-fluoro-5-(((2S,4R)-4-((8-fluoroquinazolin-4-yl)oxy)-2-methylpyrrolidin-1-yl)methyl)thiazol-2-yl)acetamide], the concentration for half-maximal inhibition (IC50) was less than 1 nM.
Regarding `CC(=O)Nc1nc(F)c(CN2C[C@H](Oc3ncnc4ccc(F)cc34)C[C@@H]2C)s1` [Example 123, N-(4-fluoro-5-(((2S,4R)-4-((6-fluoroquinazolin-4-yl)oxy)-2-methylpyrrolidin-1-yl)methyl)thiazol-2-yl)acetamide], the IC50 amounted to 4.1 nM.
Next, `CC(=O)Nc1nc(F)c(CN2C[C@H](Oc3ncnc4cccc(F)c34)C[C@@H]2C)s1` [Example 124, N-(4-fluoro-5-(((2S,4R)-4-((5-fluoroquinazolin-4-yl)oxy)-2-methylpyrrolidin-1-yl)methyl)thiazol-2-yl)acetamide]: less than 1 nM.
Next, `COc1cc2c(O[C@@H]3C[C@H](C)N(Cc4sc(NC(C)=O)nc4F)C3)ncnc2cc1F` [Example 125, N-(4-fluoro-5-(((2S,4R)-4-((7-fluoro-6-methoxyquinazolin-4-yl)oxy)-2-methylpyrrolidin-1-yl)methyl)thiazol-2-yl)acetamide]: 1.8 nM.
Next, `CC(=O)Nc1nc(F)c(CN2C[C@H](Oc3noc4cc(F)ccc34)C[C@@H]2C)s1` [Example 126, N-(4-fluoro-5-(((2S,4R)-4-((6-fluorobenzo[d]isoxazol-3-yl)oxy)-2-methylpyrrolidin-1-yl)methyl)thiazol-2-yl)acetamide]: 3.1 nM; `CC(=O)Nc1nc(F)c(CN2C[C@H](Oc3nc4c(F)cccc4o3)C[C@@H]2C)s1` [Example 127, N-(4-fluoro-5-(((2S,4R)-4-((4-fluorobenzo[d]oxazol-2-yl)oxy)-2-methylpyrrolidin-1-yl)methyl)thiazol-2-yl)acetamide]: less than 1 nM; `COc1cc2c(O[C@@H]3C[C@H](C)N(Cc4sc(NC(C)=O)nc4F)C3)ccnc2cc1F` [Example 128, N-(4-fluoro-5-(((2S,4R)-4-((7-fluoro-6-methoxyquinolin-4-yl)oxy)-2-methylpyrrolidin-1-yl)methyl)thiazol-2-yl)acetamide]: less than 1 nM.
Take `CC(=O)Nc1nc(F)c(CN2C[C@H](Oc3ccnc4cc(F)cnc34)C[C@@H]2C)s1` [Example 129, N-(4-fluoro-5-(((2S,4R)-4-((7-fluoro-1,5-naphthyridin-4-yl)oxy)-2-methylpyrrolidin-1-yl)methyl)thiazol-2-yl)acetamide]: the IC50 is less than 1 nM.
Next, `COc1cc2cnc(O[C@@H]3C[C@H](C)N(Cc4sc(NC(C)=O)nc4F)C3)cc2cc1F` [Example 130, N-(4-fluoro-5-(((2S,4R)-4-((6-fluoro-7-methoxyisoquinolin-3-yl)oxy)-2-methylpyrrolidin-1-yl)methyl)thiazol-2-yl)acetamide]: less than 1 nM; `COc1nc(O[C@@H]2C[C@H](C)N(Cc3sc(NC(C)=O)nc3F)C2)cc2cc(F)ccc12` [Example 131, N-(4-fluoro-5-(((2S,4R)-4-((6-fluoro-1-methoxyisoquinolin-3-yl)oxy)-2-methylpyrrolidin-1-yl)methyl)thiazol-2-yl)acetamide]: less than 1 nM.
As for `COc1cc2ccnc(Cl)c2cc1O[C@@H]1C[C@H](C)N(Cc2sc(NC(C)=O)nc2F)C1` [Example 132, N-(5-(((2S,4R)-4-((1-chloro-6-methoxyisoquinolin-7-yl)oxy)-2-methylpyrrolidin-1-yl)methyl)-4-fluorothiazol-2-yl)acetamide], the half-maximal inhibitory concentration (IC50) is less than 1 nM.
Consider `CC(=O)Nc1nc(F)c(CN2C[C@H](Oc3nncc4cc(F)ccc34)C[C@@H]2C)s1` [Example 133, N-(4-fluoro-5-(((2S,4R)-4-((6-fluorophthalazin-1-yl)oxy)-2-methylpyrrolidin-1-yl)methyl)thiazol-2-yl)acetamide], for which the half-maximal inhibitory concentration (IC50) is less than 1 nM.
Next, `CC(=O)Nc1nc(F)c(CN2C[C@H](Oc3ccnc4cn(C)nc34)C[C@@H]2C)s1` [Example 134, N-(4-fluoro-5-(((2S,4R)-2-methyl-4-((2-methyl-2H-pyrazolo[4,3-b]pyridin-7-yl)oxy)pyrrolidin-1-yl)methyl)thiazol-2-yl)acetamide]: less than 1 nM; `CC(=O)Nc1nc(F)c(CN2C[C@H](Oc3ccnc4cnn(C)c34)C[C@@H]2C)s1` [Example 135, N-(4-fluoro-5-(((2S,4R)-2-methyl-4-((1-methyl-1H-pyrazolo[4,3-b]pyridin-7-yl)oxy)pyrrolidin-1-yl)methyl)thiazol-2-yl)acetamide]: less than 1 nM.
As to `CC(=O)Nc1nc(F)c(CN2C[C@H](Oc3nccc4nn(C)cc34)C[C@@H]2C)s1` [Example 136, N-(4-fluoro-5-(((2S,4R)-2-methyl-4-((2-methyl-2H-pyrazolo[4,3-c]pyridin-4-yl)oxy)pyrrolidin-1-yl)methyl)thiazol-2-yl)acetamide], the IC50 was less than 1 nM.
In the case of `CC(=O)Nc1nc(F)c(CN2C[C@H](Oc3nccc4cn(C)nc34)C[C@@H]2C)s1` [Example 137, N-(4-fluoro-5-(((2S,4R)-2-methyl-4-((2-methyl-2H-pyrazolo[3,4-c]pyridin-7-yl)oxy)pyrrolidin-1-yl)methyl)thiazol-2-yl)acetamide] it was 4.3 nM.
`CC(=O)Nc1nc(F)c(CN2C[C@H](Oc3nccc4c3cnn4C)C[C@@H]2C)s1` [Example 138, N-(4-fluoro-5-(((2S,4R)-2-methyl-4-((1-methyl-1H-pyrazolo[4,3-c]pyridin-4-yl)oxy)pyrrolidin-1-yl)methyl)thiazol-2-yl)acetamide]: the IC50 was less than 1 nM.
With `CC(=O)Nc1nc(F)c(CN2C[C@H](Oc3ccnc4c3cnn4C)C[C@@H]2C)s1` [Example 139, N-(4-fluoro-5-(((2S,4R)-2-methyl-4-((1-methyl-1H-pyrazolo[3,4-b]pyridin-4-yl)oxy)pyrrolidin-1-yl)methyl)thiazol-2-yl)acetamide], the IC50 was less than 1 nM.
